Test systems include HCC-2998 colon; K-562 leukemia; NCI-H226 lung; HL-60(TB) leukemia; OVCAR-8 ovarian; SF-295 CNS; UO-31 renal; NCI-H23 lung; RPMI-8226 leukemia; U251 CNS; SF-268 CNS; SF-539 CNS; 786-0 renal; HS 578T breast; IGROV1 ovarian; SK-OV-3 ovarian; UACC-257 melanoma; NCI/ADR-RES ovarian; MALME-3M melanoma; BT-549 breast.
Holding throughout (assay): NCI tumour cell line growth inhibition, 48 h

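Five compound concentrations were applied to cells in 96-well plates for 48 hours; endpoints were derived by simple linear interpolation of the resulting dose-response curve. At the TGI there is no net growth.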 Some results are limits rather than exact numbers.

In the case of `O=[N+]([O-])/C(Cl)=C(\Nc1ccccc1)C(Cl)=C(Cl)Cl`, the TGI came out at 94.4 µM in the assay on HCC-2998 colon; 68.6 µM in the assay with K-562 leukemia; 78 µM in the assay with NCI-H226 lung; 40.1 µM in the assay on HL-60(TB) leukemia; 53.9 µM in the assay with OVCAR-8 ovarian; 94 µM in the assay on SF-295 CNS. Also, the TGI in the assay on UO-31 renal is over 100 µM; with NCI-H23 lung, over 100 µM; in the assay on RPMI-8226 leukemia, 78.9 µM; in the assay on U251 CNS, over 100 µM; in the assay on SF-268 CNS, over 100 µM; in the assay on SF-539 CNS it was 47.4 µM. Besides, the TGI in the assay with 786-0 renal was over 100 µM; in the assay on HS 578T breast it was 69.6 µM; in the assay with IGROV1 ovarian, 79 µM; in the assay on SK-OV-3 ovarian, over 100 µM; in the assay on UACC-257 melanoma, over 100 µM; with NCI/ADR-RES ovarian, 38.5 µM. The compound further came in with a TGI in the assay on MALME-3M melanoma of 45.9 µM.

With `CC(=O)NCC1(c2ccccc2)CCN(CC2COc3ccccc3O2)CC1` (configuration not stated), the TGI in the assay on HCC-2998 colon, in the assay on K-562 leukemia, in the assay on NCI-H226 lung, in the assay with HL-60(TB) leukemia, in the assay on OVCAR-8 ovarian and in the assay with SF-295 CNS was over 100 µM throughout. For the same compound, the TGI with UO-31 renal, in the assay with NCI-H23 lung, in the assay on RPMI-8226 leukemia, in the assay on U251 CNS, in the assay on SF-268 CNS and with SF-539 CNS was over 100 µM each time. Besides, the TGI with 786-0 renal, in the assay on HS 578T breast, in the assay with IGROV1 ovarian, with SK-OV-3 ovarian, in the assay with UACC-257 melanoma and in the assay with NCI/ADR-RES ovarian was over 100 µM each time. In the assay with MALME-3M melanoma, this compound had a TGI of over 100 µM.

In the case of `COc1cccc(-c2cccc(SC)n2)n1`, the TGI in the assay on HCC-2998 colon is 75.5 µM; in the assay with K-562 leukemia it was over 100 µM; in the assay with NCI-H226 lung, 31.6 µM; with BT-549 breast, over 100 µM; in the assay with HL-60(TB) leukemia it was 31 µM; in the assay on OVCAR-8 ovarian, over 100 µM. In addition, the TGI was over 100 µM with SF-295 CNS; over 100 µM with UO-31 renal; over 100 µM with NCI-H23 lung; 78.1 µM in the assay with RPMI-8226 leukemia; over 100 µM with U251 CNS; over 100 µM with SF-539 CNS. Moreover, the TGI in the assay on 786-0 renal is 88.3 µM; in the assay on IGROV1 ovarian, over 100 µM; with SK-OV-3 ovarian, over 100 µM; in the assay with UACC-257 melanoma, 98.9 µM; in the assay on NCI/ADR-RES ovarian it was over 100 µM.

Regarding `Nc1nc(N)nc(-c2cnccn2)n1`, the TGI with HCC-2998 colon, in the assay on K-562 leukemia, with NCI-H226 lung, with BT-549 breast, in the assay with OVCAR-8 ovarian and in the assay with SF-295 CNS was over 100 µM throughout. Further, the TGI in the assay on UO-31 renal, in the assay with NCI-H23 lung, with U251 CNS, in the assay with SF-268 CNS, with SF-539 CNS and with 786-0 renal was over 100 µM each time. The TGI in the assay with IGROV1 ovarian, with SK-OV-3 ovarian, with UACC-257 melanoma, in the assay with NCI/ADR-RES ovarian and with MALME-3M melanoma was over 100 µM in each case.

As to `O=c1oc2cc(O)ccc2c(O)c1C(c1ccccn1)c1c(O)c2ccc(O)cc2oc1=O`, the TGI in the assay with HCC-2998 colon, in the assay with K-562 leukemia, in the assay on NCI-H226 lung, in the assay with BT-549 breast, in the assay with OVCAR-8 ovarian and in the assay with SF-295 CNS was over 100 µM throughout. Also, the TGI with UO-31 renal, in the assay on NCI-H23 lung, in the assay on RPMI-8226 leukemia, with U251 CNS, in the assay on SF-268 CNS and with SF-539 CNS was over 100 µM in each case. Further, the TGI with 786-0 renal, in the assay on HS 578T breast, in the assay with IGROV1 ovarian, in the assay with SK-OV-3 ovarian, in the assay on UACC-257 melanoma and with NCI/ADR-RES ovarian was over 100 µM throughout.

Consider `CCOc1ccc(N/C(=C(/C(Cl)=C(/Cl)NCCO)[N+](=O)[O-])n2nnc3ccccc32)cc1`, for which the TGI is over 100 µM in the assay on HCC-2998 colon; over 100 µM in the assay on K-562 leukemia; over 100 µM in the assay with NCI-H226 lung; 38.6 µM with BT-549 breast; 36.7 µM in the assay with OVCAR-8 ovarian; over 100 µM in the assay on SF-295 CNS. Moreover, the TGI was 58 µM in the assay on UO-31 renal; 33 µM in the assay with NCI-H23 lung; over 100 µM with RPMI-8226 leukemia; 58.7 µM in the assay with U251 CNS; 41 µM in the assay with SF-268 CNS; 93 µM in the assay on SF-539 CNS. Further, the TGI with 786-0 renal was 81.7 µM; in the assay on HS 578T breast it was 38.8 µM; in the assay on SK-OV-3 ovarian, over 100 µM; in the assay with UACC-257 melanoma it was over 100 µM; in the assay on NCI/ADR-RES ovarian, 64 µM; in the assay with MALME-3M melanoma, 32.4 µM.

In the case of `C[C@@H]1C[C@@H](O)[C@@]2(O)C13CC(=O)OC(C3)[C@@H](C)[C@@]2(C)CO` (some centres not stated), the TGI in the assay on HCC-2998 colon, in the assay with K-562 leukemia, in the assay on NCI-H226 lung, in the assay with HL-60(TB) leukemia, in the assay with OVCAR-8 ovarian and in the assay with SF-295 CNS was over 100 µM each time. The TGI in the assay with UO-31 renal, with NCI-H23 lung, with RPMI-8226 leukemia, in the assay with U251 CNS, in the assay with SF-268 CNS and with SF-539 CNS was over 100 µM throughout. Also, the TGI in the assay on 786-0 renal, in the assay with HS 578T breast, with IGROV1 ovarian, in the assay on SK-OV-3 ovarian, in the assay with UACC-257 melanoma and in the assay on NCI/ADR-RES ovarian was over 100 µM throughout. In the assay on MALME-3M melanoma, this compound came in with a TGI of over 100 µM.

Source of the values: PubChem BioAssay (NCI).
